13 compounds from US9957257B2, “Amide compounds as 5-HT4 receptor agonists” (SUVEN LIFE SCIENCES LIMITED, priority 2015, dated 2018) can be followed below.

Values joined by “and” are separate entries in the source; they are usually repeats but may differ in a detail not shown here. Equal values may be shown once. Where a name gives a salt, the structure may show the parent alone. Bounds are passed on as bounds.

Broadly, the EC50 is the midpoint of the concentration-response curve.

T1 sequence (Q13639 whole entry): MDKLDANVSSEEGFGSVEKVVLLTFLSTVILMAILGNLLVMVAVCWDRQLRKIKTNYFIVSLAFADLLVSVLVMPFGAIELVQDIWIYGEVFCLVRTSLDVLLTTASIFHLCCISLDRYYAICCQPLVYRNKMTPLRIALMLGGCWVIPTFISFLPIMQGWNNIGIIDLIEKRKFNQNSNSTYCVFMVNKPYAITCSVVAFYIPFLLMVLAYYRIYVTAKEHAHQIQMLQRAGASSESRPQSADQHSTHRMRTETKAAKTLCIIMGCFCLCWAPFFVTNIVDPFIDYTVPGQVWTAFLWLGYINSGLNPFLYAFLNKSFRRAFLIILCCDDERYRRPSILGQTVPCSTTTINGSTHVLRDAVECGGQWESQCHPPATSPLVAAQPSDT

The assay has as its target T1, recombinant human 5-HT4 receptor (Homo sapiens, UniProt Q13639).
T1 construct: expressed in transfected cells
The assay can be described thus: Determination of EC50 values for 5-HT4 receptor (CHO cells, pCRE-Luc reporter). The settings on record: luciferase reporter, 4 hours incubation, read-out: 5-HT4 receptor agonistic binding in-vitro EC50. The assay is classed as cell-based. As to the method:
A stable CHO cell line expressing recombinant human 5-HT4 receptor and pCRE-Luc reporter system was used for cell-based assay. The assay offers a non-radioactive based approach to determine binding of a compound to GPCRs. In this specific assay, the level of intracellular cyclic AMP, which is modulated by activation, or inhibition of the receptor is measured. The recombinant cells harbor luciferase reporter gene under the control of cAMP response element.
The above cells were grown in 96 well clear bottom white plates in Hams F12 medium containing 10% fetal bovine serum (FBS). Prior to the addition of compounds or standard agonist, cells were serum starved overnight. Increasing concentrations of test compounds were added in OptiMEM medium to the cells. The incubation was continued at 37° C. in CO2 incubator for 4 hours. Medium was removed and cells were washed with phosphate buffered saline. The cells were lysed and luciferase activity was measured in a Luminometer. Luminescence units were plotted against the compound concentrations using Graphpad software. EC50 values of the compounds were defined as the concentration required in stimulating the luciferase activity by 50%.
Consider `CC(C)(O)CN1CC2C(CNC(=O)c3cc(Cl)c(N)c4c3OCC4)C2C1` (stereo not shown) [Example 42, 4-Amino-5-chloro-N-{[3-(2-hydroxy-2-methylpropyl)-3-azabicyclo[3.1.0]hex-6-yl]methyl}-2,3-dihydrobenzofuran-7-carboxamide oxalate], for which the EC50 is 5.1 to 10 nM.

On to `CC(C)(O)CN1CCC(F)(CNC(=O)c2cc(Cl)c(N)c3c2OCCC3)CC1` [Example 43, 5-Amino-6-chloro-N-{[4-fluoro-1-(2-hydroxy-2-methylpropyl)-4-piperidinyl]methyl}chroman-8-carboxamide], for which the EC50 fell in the range of 1.1 to 5 nM.

In the case of `CC(C)(O)CN1CCC(CNC(=O)c2cc(Br)c(N)c3c2OCCC3)CC1` [Example 46, 5-Amino-6-bromo-N-{[1-(2-hydroxy-2-methylpropyl)-4-piperidinyl]methyl}chroman-8-carboxamide L(+)-tartarate], the EC50 was at most 1 nM.

As for `CC(C)(O)CN1CCC(CNC(=O)c2cc(Cl)c(N)c3ccoc23)CC1` [Example 49, 4-Amino-5-chloro-N-{[1-(2-hydroxy-2-methylpropyl)-4-piperidinyl]methyl}benzofuran-7-carboxamide L(+)-tartarate], the EC50 was 1.1 to 5 nM.

Consider `CC(C)(O)CN1CC2C(CNC(=O)c3cc(Cl)c(N)c4ccoc34)C2C1` (stereo not drawn) [Example 51, 4-Amino-5-chloro-N-{[3-(2-hydroxy-2-methylpropyl)-3-azabicyclo[3.1.0]hex-6-yl]methyl}benzofuran-7-carboxamide L(+)-tartarate], for which the 50% effective concentration (EC50) fell in the range of 10.1 to 20 nM.

For `Cc1cc2c(N)c(Cl)cc(C(=O)NCC3CCN(CC(C)(C)O)CC3)c2o1` [Example 52, 4-Amino-5-chloro-2-methyl-N-{[1-(2-hydroxy-2-methylpropyl)-4-piperidinyl]methyl}benzofuran-7-carboxamide L(+)-tartarate], the EC50 was at most 1 nM.

As to `Cc1cc2c(N)c(Cl)cc(C(=O)NCC3C4CN(CC(C)(C)O)CC34)c2o1` (stereo not shown) [Example 54, 4-Amino-5-chloro-2-methyl-N-{[3-(2-hydroxy-2-methylpropyl)-3-azabicyclo[3.1.0]hex-6-yl]methyl}benzofuran-7-carboxamide], the EC50 was 5.1 to 10 nM.

Consider `CC(C)(F)CN1CCC(CNC(=O)c2cc(Cl)c(N)c3c2OCCC3)CC1` [Example 55, 5-Amino-6-chloro-N-{[1-(2-fluoro-2-methylpropyl)-4-piperidinyl]methyl}chroman-8-carboxamide], for which the EC50 was at most 1 nM.

Turning to `CC(C)(F)CN1CCC(F)(CNC(=O)c2cc(Cl)c(N)c3c2OCCC3)CC1` [Example 57, 5-Amino-6-chloro-N-{[1-(2-fluoro-2-methylpropyl)-4-fluoro-4-piperidinyl]methyl}chroman-8-carboxamide L(+)-tartarate], the concentration giving a half-maximal response (EC50) was in the range of 5.1 to 10 nM.

Consider `CC(C)(CO)CN1CC2C(CNC(=O)c3cc(Cl)c(N)c4c3OCCC4)C2C1` (stereo not drawn) [Example 58, 5-Amino-6-chloro-N-{[3-(3-hydroxy-2,2-dimethylpropyl)-3-azabicyclo[3.1.0]hex-6-yl]methyl}chroman-8-carboxamide L(+)-tartarate], for which the EC50 is at most 1 nM.

For `Cc1cc2c(N)c(Cl)cc(C(=O)NCC3CCN(CC(C)(C)CO)CC3)c2o1` [Example 59, 4-Amino-5-chloro-2-methyl-N-{[1-(3-hydroxy-2,2-dimethylpropyl)-4-piperidinyl]methyl}benzofuran-7-carboxamide], the EC50 was at most 1 nM.

As for `COCC(C)(C)CN1CC2C(CNC(=O)c3cc(Cl)c(N)c4c3OCCC4)C2C1` (stereo not shown) [Example 60, 5-Amino-6-chloro-N-{[3-(3-methoxy-2,2-dimethylpropyl)-3-azabicyclo[3.1.0]hex-6-yl]methyl}chroman-8-carboxamide], the EC50 is ≤ 1 nM and 1.1 to 5 nM.

In the case of `COCCCN1CC2C(CNC(=O)c3cc(Cl)c(N)c4c3OCC4)C2C1` (stereo not shown) [Example 62, 4-Amino-5-chloro-N-{[3-(3-methoxypropyl)-3-azabicyclo[3.1.0]hex-6-yl]methyl}-2,3-dihydrobenzofuran-7-carboxamide oxalate], the EC50 was in the range of 1.1 to 5 nM.
